Assays:
[1] = biological target: T1, recombinant human ALK5 (TGF-βR1) protein (Homo sapiens, UniProt P36897); assay: Biochemical ALK5 (TGF-βR1) assay to measure pKi (LANCE Ultra ULight kinase assay); settings: apparent pKi, converted from pIC50 using the Cheng-Prusoff equation
T1 construct: purchased Life Technologies PR9075A
T1 sequence (P36897 34-503): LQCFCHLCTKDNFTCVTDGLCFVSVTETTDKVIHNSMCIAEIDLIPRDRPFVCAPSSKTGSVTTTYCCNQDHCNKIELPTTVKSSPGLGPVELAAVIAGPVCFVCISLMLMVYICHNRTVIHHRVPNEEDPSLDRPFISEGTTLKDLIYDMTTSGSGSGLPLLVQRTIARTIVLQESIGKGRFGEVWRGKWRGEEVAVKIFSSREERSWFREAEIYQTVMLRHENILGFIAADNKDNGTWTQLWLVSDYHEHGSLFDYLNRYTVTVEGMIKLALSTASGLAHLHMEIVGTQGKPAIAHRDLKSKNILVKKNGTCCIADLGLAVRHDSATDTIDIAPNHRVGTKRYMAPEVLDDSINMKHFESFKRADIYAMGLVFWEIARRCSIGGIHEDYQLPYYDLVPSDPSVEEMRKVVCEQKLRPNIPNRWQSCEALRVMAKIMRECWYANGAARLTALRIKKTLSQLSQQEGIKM
How it was run: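 TR-FRET kinase format: compound dose range 10 μM–25 pM equilibrated 60 min with human ALK5 and ULight-labelled topoisomerase 2α peptide in HEPES/MgCl2 buffer pH 7.5 with DTT. Reaction started with ATP (125 μM stock, 5× final), 60 min at 37° C, stopped with EDTA/Eu-anti-phospho antibody; pKi derived from pIC50 via Cheng-Prusoff.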

[2] = tested on: TGF-β-stimulated SMAD3 phosphorylation in BEAS-2B cells; assay: Cellular ALK5 potency assay, inhibition of TGF-β stimulated pSMAD3 formation in BEAS-2B cells; format: cell-based; settings: Homo sapiens, inhibition of TGF-β (10 ng/mL) stimulated pSMAD3 formation, 1 hour compound incubation, read-out: BEAS2B pIC50 (converted)
How it was run: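 Phospho-SMAD3 was quantified by AlphaLISA in lysates of human lung epithelial BEAS-2B cells. Compound was added 1 h (37 °C, HEPES/BSA-supplemented HBSS) before a 30 min challenge with 10 ng/mL TGF-β. Values are pIC50 relative to stimulated cells without compound.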

| Compound | Ki [1] [nM] | IC50 [2] [nM] |
| --- | --- | --- |
| CN1CC=C(c2cnc3ccc(-c4c[nH]nc4-c4cc(Cl)c(F)cc4F)nc3c2)C1 [Compound 6-43, 2-(3-(5-chloro-2,4-difluorophenyl)-1H-pyrazol-4-yl)-7-(1-methyl-2,5-dihydro-1H-pyrrol-3-yl)-1,5-naphthyridine] | 0.0398 to 0.316 | ≤ 20 |
| Fc1cc(F)c(-c2[nH]cnc2-c2ccc3ncc(NCCN4CCNCC4)cc3c2)cc1Cl [Compound 22-5, 6-[5-(5-chloro-2,4-difluoro-phenyl)-1H-imidazol-4-yl]-N-(2-piperazin-1-ylethyl)quinolin-3-amine] | 0.0398 to 0.316 | 25.1 to 158 |
| Fc1ccc(Cl)cc1-c1n[nH]cc1-c1ccc2ncc(-c3cnn4c3CNCC4)cc2n1 [Compound 1-108, 2-[3-(5-chloro-2-fluoro-phenyl)-1H-pyrazol-4-yl]-7-(4,5,6,7-tetrahydropyrazolo[1,5-a]pyrazin-3-yl)-1,5-naphthyridine] | ≤ 0.0316 | ≤ 20 |
| CN(C)C1CCN(c2cnc3ccc(-c4nc[nH]c4-c4cc(Cl)ccc4F)nc3c2)CC1 [Compound 2-6, 1-(6-(5-(5-chloro-2-fluorophenyl)-1H-imidazol-4-yl)-1,5-naphthyridin-3-yl)-N,N-dimethylpiperidin-4-amine] | 0.0398 to 0.316 | 25.1 to 158 |
| Fc1ccc(Cl)cc1-c1nc2ccccn2c1-c1ccc2ncc(N3CCCNCC3)cc2c1 [Compound 19-8, 6-[2-(5-chloro-2-fluoro-phenyl)imidazo[1,2-a]pyridin-3-yl]-3-(1,4-diazepan-1-yl)quinoline] | 0.398 to 3.16 | 200 to 1260 |
| C[C@@H]1CN(CCNc2cnc3ccc(-c4nc[nH]c4-c4cccc(Cl)c4)nc3c2)C[C@H](C)N1 [Compound 29-2, 6-[5-(3-chlorophenyl)-1H-imidazol-4-yl]-N-[2-[rac-(3R,5S)-3,5-dimethylpiperazin-1-yl]ethyl]-1,5-naphthyridin-3-amine] | 0.398 to 3.16 | 25.1 to 158 |
| CC(C)N1CC=C(c2cnc3ccc(-c4c[nH]nc4-c4ccc(F)c(F)c4)nc3c2)C1 [Compound 8-23, 2-[3-(3,4-difluorophenyl)-1H-pyrazol-4-yl]-7-(1-isopropyl-2,5-dihydropyrrol-3-yl)-1,5-naphthyridine] | 0.398 to 3.16 | 25.1 to 158 |
| Fc1ccc(-c2n[nH]cc2-c2ccc3ncc(N4CCNCC4)cc3n2)cc1F [Compound 8-4, 2-[3-(3,4-difluorophenyl)-1H-pyrazol-4-yl]-7-piperazin-1-yl-1,5-naphthyridine] | 3.98 to 31.6 | 25.1 to 158 |
| CN1CCN(C2CCN(c3cnc4ccc(-c5c[nH]nc5-c5cc(Cl)c(F)cc5F)nc4c3)CC2)CC1 [Compound 6-17, 2-[3-(5-chloro-2,4-difluoro-phenyl)-1H-pyrazol-4-yl]-7-[4-(4-methylpiperazin-1-yl)-1-piperidyl]-1,5-naphthyridine] | 0.0398 to 0.316 | 25.1 to 158 |

More lines, main results first:

| Ki [1] [nM] | Compound | IC50 [2] [nM] |
| --- | --- | --- |
| 0.0398 to 0.316 | CC(C)N1CCN(c2cnc3ccc(-c4c[nH]nc4-c4cc(Cl)ccc4F)nc3c2)CC1 [Compound 1-43, 2-[3-(5-chloro-2-fluoro-phenyl)-1H-pyrazol-4-yl]-7-(4-isopropylpiperazin-1-yl)-1,5-naphthyridine] | 25.1 to 158 |
| 0.0398 to 0.316 | Fc1ccc(Cl)cc1-c1n[nH]cc1-c1ccc2ncc(NCC3CNC3)cc2n1 [Compound 1-28, N-(azetidin-3-ylmethyl)-6-[3-(5-chloro-2-fluoro-phenyl)-1H-pyrazol-4-yl]-1,5-naphthyridin-3-amine] | 25.1 to 158 |
| 0.398 to 3.16 | O=Cc1cnc2ccc(-c3c[nH]nc3-c3cc(Cl)ccc3F)nc2c1 [Compound 1-101, 6-[3-(5-chloro-2-fluoro-phenyl)-1H-pyrazol-4-yl]-1,5-naphthyridine-3-carbaldehyde] | ≤ 20 |
| 0.398 to 3.16 | CN1CCC(Nc2cnc3ccc(-c4c[nH]nc4-c4cc(Cl)ccc4F)nc3c2)C1 (centres unmarked) [Compound 1-4, 6-[3-(5-chloro-2-fluoro-phenyl)-1H-pyrazol-4-yl]-N-(1-methylpyrrolidin-3-yl)-1,5-naphthyridin-3-amine] | 25.1 to 158 |
